Source: patent US12157729B2, “Solid state forms of Belumosudil and Belumosudil salts” (TEVA PHARMACEUTICALS INTERNATIONAL GMBH, priority 2020, dated 2024)

Key:
[1] = Hygroscopicity of the crystalline form; assay type: physicochemical; settings: crystalline solid form
[2] = Polymorphic stability at up to 100% relative humidity at room temperature; assay type: physicochemical

Row | hygroscopicity [1] | time over which the form is polymorphically stable [2] | Substance
1 | non-hygroscopic | at least 7 days | Belumosudil Besylate [Form BS1]
2 | non-hygroscopic | at least 7 days | Belumosudil Mesylate [Form M1]
3 | non-hygroscopic | at least 7 days | Belumosudil Tosylate [Form T1]
